{
  "source": "patent US7442541B2",
  "about": "“β-glucan-containing fat and oil composition and novel microorganism capable of producing β-glucan” (Adeka Corporation, priority 2002, dated 2008)",
  "assay_in_all_cases": "Cycloheximide resistance test",
  "format_in_all_cases": "cell-based",
  "key": {"ADK-10": {"tested_on": "ADK-10", "conditions": "strain ADK-10, YM agar, 26° C., 10 days", "description": "(§1) The strains obtained by the screening in Test Examples 1 and 2 and IFO-4466, IFO-6353, and IFO-7757 purchased from Institute for Fermentation, Osaka, i.e., were tested for cycloheximide resistance as follows. Each strain was grown on YM agar medium (Difco) at 26° C. for 5 days. YM agar media (Difco) containing 5, 10, 20, 40, and 80 μg/ml of cycloheximide were prepared. The grown strain was inoculated into each of the cycloheximide-containing media using a sterile toothpick and incubated at 26° C. for 10 days. The plates were examined for colonies. The diameters of the colonies, if formed, were measured."}, "ADK-24": {"tested_on": "ADK-24", "conditions": "strain ADK-24, YM agar, 26° C., 10 days", "description": "as §1"}, "ADK-4": {"tested_on": "ADK-4", "conditions": "strain ADK-4, YM agar, 26° C., 10 days", "description": "as §1"}, "ADK-17": {"tested_on": "ADK-17", "conditions": "strain ADK-17, YM agar, 26° C., 10 days", "description": "as §1"}},
  "data": [
    {"molecule": "C[C@@H]1C[C@@H]([C@H](O)CC2CC(=O)NC(=O)C2)C(=O)[C@@H](C)C1", "note": "[Cycloheximide, cycloheximide]", "values": [
      {"measurement": "Colony diameter", "setting": "ADK-10; cycloheximide 5 μg/ml", "result": 8.5, "unit": "mm"},
      {"measurement": "Colony diameter", "setting": "ADK-10; cycloheximide 10 μg/ml", "result": 0, "unit": "mm"},
      {"measurement": "Colony diameter", "setting": "ADK-10; cycloheximide 20 μg/ml", "result": 0, "unit": "mm"},
      {"measurement": "Colony diameter", "setting": "ADK-10; cycloheximide 40 μg/ml", "result": 0, "unit": "mm"},
      {"measurement": "Colony diameter", "setting": "ADK-10; cycloheximide 80 μg/ml", "result": 0, "unit": "mm"},
      {"measurement": "Colony diameter", "setting": "ADK-24; cycloheximide 5 μg/ml", "result": 9.1, "unit": "mm"},
      {"measurement": "Colony diameter", "setting": "ADK-24; cycloheximide 10 μg/ml", "result": 2.5, "unit": "mm"},
      {"measurement": "Colony diameter", "setting": "ADK-24; cycloheximide 20 μg/ml", "result": 0, "unit": "mm"},
      {"measurement": "Colony diameter", "setting": "ADK-24; cycloheximide 40 μg/ml", "result": 0, "unit": "mm"},
      {"measurement": "Colony diameter", "setting": "ADK-24; cycloheximide 80 μg/ml", "result": 0, "unit": "mm"},
      {"measurement": "Colony diameter", "setting": "ADK-4; cycloheximide 5 μg/ml", "result": 8.5, "unit": "mm"},
      {"measurement": "Colony diameter", "setting": "ADK-4; cycloheximide 10 μg/ml", "result": 0, "unit": "mm"},
      {"measurement": "Colony diameter", "setting": "ADK-4; cycloheximide 20 μg/ml", "result": 0, "unit": "mm"},
      {"measurement": "Colony diameter", "setting": "ADK-4; cycloheximide 40 μg/ml", "result": 0, "unit": "mm"},
      {"measurement": "Colony diameter", "setting": "ADK-4; cycloheximide 80 μg/ml", "result": 0, "unit": "mm"},
      {"measurement": "Colony diameter", "setting": "ADK-17; cycloheximide 5 μg/ml", "result": 6.7, "unit": "mm"},
      {"measurement": "Colony diameter", "setting": "ADK-17; cycloheximide 10 μg/ml", "result": 0, "unit": "mm"},
      {"measurement": "Colony diameter", "setting": "ADK-17; cycloheximide 20 μg/ml", "result": 0, "unit": "mm"},
      {"measurement": "Colony diameter", "setting": "ADK-17; cycloheximide 40 μg/ml", "result": 0, "unit": "mm"},
      {"measurement": "Colony diameter", "setting": "ADK-17; cycloheximide 80 μg/ml", "result": 0, "unit": "mm"}
    ]}
  ]
}
